The record followed here is patent US4954507A, “1-tertiary-alkyl-substituted naphthyridine carboxylic acid antibacterial agents” (priority 1988, dated 1990).

≈ marks a conversion by molar mass, not a printed value. Read-outs that look alike come from different tables or passages of the source.

The subject of one data set is Staphylococcus aureus. The experiment in a line: MIC, microtitration dilution method, S. aur. It counts as cell-based. As to the method:
(§1) The compounds of this invention display antibacterial activity when tested by the microtitration dilution method reported by Heifetz et al., Antimicr. Agents & Chemoth., 6. 124 (1974). Minimum inhibitory concentrations (MICs, in μg/ml) for but a few representative compounds according to this invention were determined by the above-mentioned method.

The next data set concerns Streptococcus faecalis. The experiment in a line: MIC, microtitration dilution method, S. faecal. In kind it is cell-based. As to the method: as §1
The subject of another data set is Streptococcus faecium. Put plainly: MIC, microtitration dilution method, S. faeci. In kind it is cell-based. The method, then: as §1
In a further data set the test system is Escherichia coli. The experiment in a line: MIC, microtitration dilution method, E. coli. It counts as cell-based. The method, then:
as §1

The next data set relates to Enterobacter cloacae. Put plainly: MIC, microtitration dilution method, E. clo. It counts as cell-based.
The next data set deals with Pseudomonas aeruginosa. Put plainly: MIC, microtitration dilution method, P. aer. In kind it is cell-based. The method, then:
as §1

Another data set concerns Klebsiella pneumoniae. The experiment in a line: MIC, K. pneum. It counts as cell-based. The method, then:
as §1

For a further data set, the system named is Klebsiella oxytoca. Put plainly: MIC, microtitration dilution method, K. oxyto. It counts as cell-based. The note with it: Table 2. The method, then: as §1
For data set [1] the following is noted: in words; from Tables 2, 3 and 4.
Another data set can be described thus: physchem. The note with it: water.
[2] abbreviates: Escherichia coli, Table 3, E. coli, read-out: MIC.
Setting [3] is: Staphylococcus aureus, Table 3, S. aur., read-out: MIC.
Where [4] appears, read: Enterococcus faecalis, Table 3, S. faecal., read-out: MIC.
[5] abbreviates: Enterococcus faecium, Table 3, S. faeci., read-out: MIC.
Where [6] appears, read: Enterobacter cloacae, Table 3, E. clo., read-out: MIC.
The mark [7] stands for this setting: Pseudomonas aeruginosa, Table 3, P. aer., read-out: MIC.
Where [8] appears, read: Table 3, K. pneum., read-out: MIC.

Turning to `CC1CN(c2nc3c(cc2F)c(=O)c(C(=O)O)cn3C(C)(C)C)CC1N` (mixture of isomers) [Example 42], the MIC with Staphylococcus aureus (Staphylococcus aureus) was determined as 0.03 µg/mL; against Streptococcus faecalis (Enterococcus faecalis), 0.25 µg/mL; in the data set on Streptococcus faecium (Enterococcus faecium), 1 µg/mL; with Escherichia coli (Escherichia coli), 0.008 µg/mL; against Enterobacter cloacae (Enterobacter cloacae), 0.015 µg/mL; in the data set with Pseudomonas aeruginosa (Pseudomonas aeruginosa), 0.25 µg/mL. Also, in the data set on Klebsiella pneumoniae, it took 0.06 µg/mL to inhibit growth (MIC).

Regarding `C[C@H]1CN(c2nc3c(cc2F)c(=O)c(C(=O)O)cn3C(C)(C)C)C[C@H]1N` (relative stereo) [Example 47, 7-(cis-3-amino-4-methyl-pyrrolidin-1-yl)-1-(1,1-dimethylethyl)-1,4-dihydro-6-fluoro-4-oxo-1,8-naphthyridine-3-carboxylic acid], the MIC turned out to be 0.015 µg/mL (≈ 0.0414 µM) against Staphylococcus aureus (Staphylococcus aureus); 0.13 µg/mL (≈ 0.359 µM) in the data set with Streptococcus faecalis (Enterococcus faecalis); 1 µg/mL (≈ 2.76 µM) in the data set on Streptococcus faecium (Enterococcus faecium); 0.25 µg/mL (≈ 0.69 µM) in the data set on Escherichia coli (Escherichia coli); 0.13 µg/mL (≈ 0.359 µM) against Enterobacter cloacae (Enterobacter cloacae); 0.5 µg/mL (≈ 1.38 µM) against Pseudomonas aeruginosa (Pseudomonas aeruginosa). Also, in the data set with Klebsiella pneumoniae, the minimum inhibitory concentration (MIC) is 0.03 µg/mL (≈ 0.0828 µM).

As to `CS(=O)(=O)O.C[C@@H]1CN(c2nc3c(cc2F)c(=O)c(C(=O)O)cn3C(C)(C)C)C[C@H]1N` (relative stereo) [Example 48, 7-(trans-3-amino-4-methylpyrrolidin-1-yl)-1-(1,1-dimethylethyl)-1,4-dihydro-6-fluoro-4-oxo-1,8-naphthyridine-3-carboxylic acid (methanesulfonate)], the MIC with Staphylococcus aureus (Staphylococcus aureus) worked out at 0.008 µg/mL; in the data set on Streptococcus faecalis (Enterococcus faecalis) it was 0.06 µg/mL; against Streptococcus faecium (Enterococcus faecium) it was 0.5 µg/mL; in the data set with Escherichia coli (Escherichia coli), 0.015 µg/mL; in the data set with Enterobacter cloacae (Enterobacter cloacae), 0.015 µg/mL; with Pseudomonas aeruginosa (Pseudomonas aeruginosa), 0.25 µg/mL. Also, in the data set on Klebsiella pneumoniae, the MIC was found to be 0.06 µg/mL.

For `O=C(O)c1cn(C2CC2)c2cc(N3CCNCC3)c(F)cc2c1=O` [Cip., 1-cyclopropyl-6-fluoro-1,4-dihydro-7-(1-piperazinyl)-4-oxo-quinoline-3-carboxylic acid, reference compound], the MIC amounted to 0.13 µg/mL (≈ 0.392 µM) in the data set on Staphylococcus aureus (Staphylococcus aureus); 8 µg/mL (≈ 24.1 µM) with Streptococcus faecium (Enterococcus faecium); 0.015 µg/mL (≈ 0.0453 µM) in the data set on Escherichia coli (setting [2]); 0.13 µg/mL (≈ 0.392 µM) against Pseudomonas aeruginosa (Pseudomonas aeruginosa); 0.03 µg/mL (≈ 0.0905 µM) in the data set with Klebsiella pneumoniae.

With `CC(C)(C)n1cc(C(=O)O)c(=O)c2cc(F)c(N3C[C@@H]4CC[C@H]3CN4)nc21` [Example 23, 7-(1S,4S-2,5-DIAZABICYCLO[2.2.2]OCTAN-2-YL)-1-(1,1-DIMETHYLETHYL)-1,4-DIHYDRO-6-FLUORO-4-OXO-1,8-NAPHTHYRIDINE-3-CARBOXYLIC ACID], the MIC against Staphylococcus aureus (Table 2, S. aur.) is 30 µg/mL (≈ 80.1 µM); with Streptococcus faecalis (Table 2, S. faecal.) it was 500 µg/mL (≈ 1340 µM); against Streptococcus faecium (Table 2, S. faeci.) it was 2000 µg/mL (≈ 5340 µM); in the data set with Escherichia coli (Table 2, E. coli), 130 µg/mL (≈ 347 µM); in the data set with Klebsiella oxytoca, 500 µg/mL (≈ 1340 µM); with Enterobacter cloacae (Table 2, E. clo.), 60 µg/mL (≈ 160 µM). Also, the MIC against Pseudomonas aeruginosa (Table 2, P. aer.) turned out to be 1000 µg/mL (≈ 2670 µM).

Turning to `CC(C)(C)n1cc(C(=O)O)c(=O)c2cc(F)c(N3C[C@H]4C[C@@H]3CN4)nc21` [Example 30], the minimum inhibitory concentration (MIC) turned out to be 0.06 µg/mL (≈ 0.166 µM) in the data set on Staphylococcus aureus (setting [3]); 0.25 µg/mL (≈ 0.694 µM) in the data set on Streptococcus faecalis (setting [4]); 2 µg/mL (≈ 5.55 µM) in the data set with Streptococcus faecium (setting [5]); 0.06 µg/mL (≈ 0.166 µM) in the data set with Escherichia coli (setting [2]); 0.03 µg/mL (≈ 0.0832 µM) with Enterobacter cloacae (setting [6]); 0.13 µg/mL (≈ 0.361 µM) in the data set with Pseudomonas aeruginosa (setting [7]). Also, the minimal inhibitory concentration (MIC) in the data set on Klebsiella pneumoniae (setting [8]) stood at 0.06 µg/mL (≈ 0.166 µM). In addition, the “combination of anti-bacterial, toxicity, and water-solubility properties” value in data set [1] is given as “highly advantageous combination of the above mentioned properties”. For the same molecule, the concentration in solution in “physchem” (solubility) came to 80 µg/mL (≈ 222 µM).

`CC(C)(C)n1cc(C(=O)O)c(=O)c2cc(F)c(N3CCC(N)C3)nc21` (stereo not shown) [Example 36, 7-(3-AMINO-1-PYRROLIDINYL)-1-(1,1-DIMETHYLETHYL)-1,4-DIHYDRO-6-FLUORO-4-OXO-1,8-NAPHTHYRIDINE-3-CARBOXYLIC ACID]: the MIC against Staphylococcus aureus (Staphylococcus aureus) was found to be 0.015 µg/mL (≈ 0.0431 µM); in the data set with Streptococcus faecalis (Enterococcus faecalis), 0.25 µg/mL (≈ 0.718 µM); in the data set with Streptococcus faecium (Enterococcus faecium) it was 1 µg/mL (≈ 2.87 µM); in the data set on Escherichia coli (Escherichia coli) it was 0.13 µg/mL (≈ 0.373 µM); in the data set with Enterobacter cloacae (Enterobacter cloacae) it was 0.06 µg/mL (≈ 0.172 µM); in the data set on Pseudomonas aeruginosa (Pseudomonas aeruginosa), 0.25 µg/mL (≈ 0.718 µM). The molecule also displayed an MIC against Klebsiella pneumoniae of 0.13 µg/mL (≈ 0.373 µM).

On to `CC(C)(C)n1cc(C(=O)O)c(=O)c2cc(F)c(N3CC[C@@H](N)C3)nc21` [Example 45, 7-[(R)-3-AMINO-PYRROLIDINYL]-1-(1,1-DIMETHYLETHYL)-1,4-DIHYDRO-6-FLUORO-4-OXO-1,8-NAPHTHYRIDINE-3-CARBOXYLIC ACID, METHANESULFONATE], for which the MIC came out at 0.15 µg/mL against Staphylococcus aureus (Staphylococcus aureus); 0.13 µg/mL against Streptococcus faecalis (Enterococcus faecalis); 1 µg/mL against Streptococcus faecium (Enterococcus faecium); 0.06 µg/mL against Escherichia coli (Escherichia coli); 0.06 µg/mL in the data set with Enterobacter cloacae (Enterobacter cloacae); 0.25 µg/mL with Pseudomonas aeruginosa (Pseudomonas aeruginosa). Further, the MIC against Klebsiella pneumoniae came to 0.13 µg/mL.

Consider `CC(C)(C)n1cc(C(=O)O)c(=O)c2cc(F)c(N3CC[C@H](N)C3)nc21` [Example 46, 7-[(S)-3-amino-1-pyrrolidinyl]-1-(1,1-dimethylethyl)-6-fluoro-1,4-dihydro-4-oxo-1,8-naphthyridine-3-carboxylic acid], for which the MIC against Staphylococcus aureus (Staphylococcus aureus) came to 0.008 µg/mL (≈ 0.023 µM); against Streptococcus faecalis (Enterococcus faecalis) it was 0.03 µg/mL (≈ 0.0861 µM); in the data set with Streptococcus faecium (Enterococcus faecium), 0.25 µg/mL (≈ 0.718 µM); with Escherichia coli (Escherichia coli), 0.015 µg/mL (≈ 0.0431 µM); in the data set on Enterobacter cloacae (Enterobacter cloacae) it was 0.008 µg/mL (≈ 0.023 µM); in the data set on Pseudomonas aeruginosa (Pseudomonas aeruginosa), 0.06 µg/mL (≈ 0.172 µM). Besides, the MIC against Klebsiella pneumoniae is 0.03 µg/mL (≈ 0.0861 µM).

Consider `CCn1cc(C(=O)O)c(=O)c2cc(F)c(N3CCNCC3)cc21` [Nor., 1-ethyl-6-fluoro-1,4-dihydro-7-(1-piperazinyl)-4-oxo-quinoline-3-carboxylic acid, reference compound], for which the MIC with Staphylococcus aureus (setting [3]) worked out at 0.25 µg/mL (≈ 0.783 µM); in the data set with Streptococcus faecalis (setting [4]), 2 µg/mL (≈ 6.26 µM); with Streptococcus faecium (setting [5]) it was 8 µg/mL (≈ 25.1 µM); in the data set with Escherichia coli (setting [2]), 0.06 µg/mL (≈ 0.188 µM); in the data set on Enterobacter cloacae (setting [6]) it was 0.06 µg/mL (≈ 0.188 µM); with Pseudomonas aeruginosa (setting [7]), 0.5 µg/mL (≈ 1.57 µM). The minimal inhibitory concentration (MIC) with Klebsiella pneumoniae (setting [8]) stood at 0.03 µg/mL (≈ 0.0939 µM).
